From ChEMBL document CHEMBL4251744, “Identification of Lycopodium Alkaloids Produced by an Ultraviolet-Irradiated Strain of Paraboeremia, an Endophytic Fungus from Lycopodium serratum var. longipetiolatum” (J Nat Prod, 2018)

Legend:
[1] = biological target: T1, Acetylcholinesterase (Homo sapiens, UniProt P22303); assay: Inhibition of AChE (unknown origin)
[2] = biological target: T1, Acetylcholinesterase; assay: Inhibition of AChE (unknown origin) using acetylthiocholine iodide as substrate by Ellman's method

T1 sequence (P22303 whole entry): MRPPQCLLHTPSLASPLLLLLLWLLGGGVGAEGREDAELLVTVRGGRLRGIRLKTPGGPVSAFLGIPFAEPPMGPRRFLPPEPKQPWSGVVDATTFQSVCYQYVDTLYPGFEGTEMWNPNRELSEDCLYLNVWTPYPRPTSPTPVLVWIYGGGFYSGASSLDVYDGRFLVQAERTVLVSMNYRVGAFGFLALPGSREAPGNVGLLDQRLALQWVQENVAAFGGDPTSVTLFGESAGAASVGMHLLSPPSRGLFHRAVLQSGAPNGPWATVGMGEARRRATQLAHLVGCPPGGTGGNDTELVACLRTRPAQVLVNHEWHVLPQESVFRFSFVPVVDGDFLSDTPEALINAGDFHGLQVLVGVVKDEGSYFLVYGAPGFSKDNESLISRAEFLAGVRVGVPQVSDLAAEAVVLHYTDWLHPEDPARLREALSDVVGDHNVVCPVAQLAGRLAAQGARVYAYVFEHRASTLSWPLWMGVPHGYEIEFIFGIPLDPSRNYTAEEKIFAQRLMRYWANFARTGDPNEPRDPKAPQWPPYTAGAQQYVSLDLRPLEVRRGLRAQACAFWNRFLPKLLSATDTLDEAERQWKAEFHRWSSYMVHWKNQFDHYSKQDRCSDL

## C[C@@H]1C[C@H]2CC(=O)[C@H]3CCC[N+]4([O-])CCC[C@]2(O)[C@]34C1 (stereo partly drawn)
[1]
  IC50: 0.59 µM

## C[C@@H]1C[C@H]2CC(=O)[C@H]3CCCN4CCC[C@@H]2[C@]34C1
[2]
  IC50: > 100 µM

## C[C@@H]1C[C@H]2CC(=O)[C@H]3CCC[N+]4([O-])CCC[C@@H]2[C@]34C1 (stereo partly drawn)
[2]
  IC50: > 100 µM
